Laboratory results reported in ChEMBL document CHEMBL3352267, “The design and implementation of a generic lipopeptide scanning platform to enable the identification of 'locally acting' agonists for the apelin receptor” (Bioorg Med Chem Lett, 2014).
Active and inactive are the calls of the source. Residues, ends and D or L forms follow the SMILES beside them. *: point of attachment. Palmitoyl = CCCCCCCCCCCCCCCC(=O)*

How the values were obtained:
[1] = biological target: T1, Alpha-1A adrenergic receptor (Homo sapiens, UniProt P35348); assay: Agonist activity at alpha-1A adrenergic receptor (unknown origin) expressed in CHOK1 cells after 3 mins by calcium flux/FLIPR assay; assay type: functional, cell-based, CHO-K1
T1 sequence (P35348 whole entry): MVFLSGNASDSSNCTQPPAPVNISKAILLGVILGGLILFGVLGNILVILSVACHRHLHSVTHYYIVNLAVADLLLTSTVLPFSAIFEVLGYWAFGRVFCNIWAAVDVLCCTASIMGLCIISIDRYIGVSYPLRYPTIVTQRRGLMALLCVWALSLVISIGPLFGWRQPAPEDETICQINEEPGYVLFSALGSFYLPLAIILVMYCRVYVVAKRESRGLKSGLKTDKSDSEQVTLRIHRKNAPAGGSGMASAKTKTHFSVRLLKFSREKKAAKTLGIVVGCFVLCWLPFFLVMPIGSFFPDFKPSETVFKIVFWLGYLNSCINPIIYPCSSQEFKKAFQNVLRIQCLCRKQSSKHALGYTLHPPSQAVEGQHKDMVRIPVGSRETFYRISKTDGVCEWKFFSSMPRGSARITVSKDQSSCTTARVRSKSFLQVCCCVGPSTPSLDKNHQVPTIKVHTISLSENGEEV

[2] = biological target: T2, Muscarinic acetylcholine receptor M2 (Homo sapiens, UniProt P08172); assay: Agonist activity at muscarinic acetylcholine receptor M2 (unknown origin) expressed in CHOK1 cells after 3 mins by calcium flux/FLIPR assay; assay type: functional, cell-based, CHO-K1
T2 sequence (P08172 whole entry): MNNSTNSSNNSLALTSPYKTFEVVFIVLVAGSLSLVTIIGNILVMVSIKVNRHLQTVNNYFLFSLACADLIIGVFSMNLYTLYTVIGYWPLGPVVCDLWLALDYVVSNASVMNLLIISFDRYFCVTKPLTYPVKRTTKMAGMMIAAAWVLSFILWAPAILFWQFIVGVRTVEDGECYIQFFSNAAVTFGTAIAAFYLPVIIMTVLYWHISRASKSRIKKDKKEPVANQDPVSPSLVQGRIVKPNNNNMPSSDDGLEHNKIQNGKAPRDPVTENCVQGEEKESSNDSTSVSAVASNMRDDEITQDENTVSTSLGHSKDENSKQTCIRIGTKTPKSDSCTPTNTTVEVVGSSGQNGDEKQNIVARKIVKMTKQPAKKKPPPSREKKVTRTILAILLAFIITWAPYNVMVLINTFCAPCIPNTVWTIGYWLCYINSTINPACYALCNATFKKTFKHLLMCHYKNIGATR

D(1A) dopamine receptor [3] = biological target: T3, D(1A) dopamine receptor (Homo sapiens, UniProt P21728); assay: Antagonist activity at D1A receptor (unknown origin) expressed in CHOK1 cells after 5 mins by HTRF cAMP immunoassay in presence of cAMP/SKF38393; assay type: functional, cell-based, CHO-K1
T3 sequence (P21728 whole entry): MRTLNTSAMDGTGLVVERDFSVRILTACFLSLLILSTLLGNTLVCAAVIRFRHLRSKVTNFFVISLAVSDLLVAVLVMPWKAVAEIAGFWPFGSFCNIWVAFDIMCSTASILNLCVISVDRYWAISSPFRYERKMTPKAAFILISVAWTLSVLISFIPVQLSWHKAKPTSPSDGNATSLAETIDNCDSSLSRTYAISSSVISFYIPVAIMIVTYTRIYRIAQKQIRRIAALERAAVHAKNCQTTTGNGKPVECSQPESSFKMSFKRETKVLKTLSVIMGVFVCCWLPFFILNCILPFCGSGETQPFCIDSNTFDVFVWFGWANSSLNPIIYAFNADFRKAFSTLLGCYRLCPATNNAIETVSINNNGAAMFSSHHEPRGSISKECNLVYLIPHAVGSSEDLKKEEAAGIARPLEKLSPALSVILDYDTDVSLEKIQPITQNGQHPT

Cannabinoid receptor 1 [4] = biological target: T4, Cannabinoid receptor 1 (Homo sapiens, UniProt P21554); assay: Antagonist activity at CB1 receptor (unknown origin) expressed in rat CHEM-1 cells after 15 mins by calcium flux/FLIPR assay in presence of CP55940; assay type: functional, cell-based
T4 sequence (P21554 whole entry): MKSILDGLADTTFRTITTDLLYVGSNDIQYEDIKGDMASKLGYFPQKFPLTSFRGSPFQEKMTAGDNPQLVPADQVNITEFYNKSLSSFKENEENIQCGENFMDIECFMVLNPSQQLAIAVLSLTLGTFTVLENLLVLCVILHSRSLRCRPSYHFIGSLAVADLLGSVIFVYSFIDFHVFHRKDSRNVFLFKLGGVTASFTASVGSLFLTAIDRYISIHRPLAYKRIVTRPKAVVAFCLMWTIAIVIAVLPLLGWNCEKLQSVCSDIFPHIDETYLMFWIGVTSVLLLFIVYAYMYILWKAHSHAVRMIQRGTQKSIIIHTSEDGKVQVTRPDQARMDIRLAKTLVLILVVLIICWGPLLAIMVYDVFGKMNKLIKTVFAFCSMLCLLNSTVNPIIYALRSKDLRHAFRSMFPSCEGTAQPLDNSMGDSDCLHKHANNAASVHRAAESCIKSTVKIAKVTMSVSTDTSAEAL

[5] = biological target: T2, Muscarinic acetylcholine receptor M2; assay: Antagonist activity at muscarinic acetylcholine receptor M2 (unknown origin) expressed in CHOK1 cells after 15 mins by calcium flux/FLIPR assay in presence of acetylcholine; assay type: functional, cell-based, CHO-K1
Thromboxane A2 receptor [6] = biological target: T5, Thromboxane A2 receptor (Homo sapiens, UniProt P21731); assay: Antagonist activity at thromboxane A2 receptor (unknown origin) expressed in HEK293-EBNA cells after 15 mins by calcium flux/FLIPR assay in presence of U-46619; assay type: functional, cell-based
T5 sequence (P21731 whole entry): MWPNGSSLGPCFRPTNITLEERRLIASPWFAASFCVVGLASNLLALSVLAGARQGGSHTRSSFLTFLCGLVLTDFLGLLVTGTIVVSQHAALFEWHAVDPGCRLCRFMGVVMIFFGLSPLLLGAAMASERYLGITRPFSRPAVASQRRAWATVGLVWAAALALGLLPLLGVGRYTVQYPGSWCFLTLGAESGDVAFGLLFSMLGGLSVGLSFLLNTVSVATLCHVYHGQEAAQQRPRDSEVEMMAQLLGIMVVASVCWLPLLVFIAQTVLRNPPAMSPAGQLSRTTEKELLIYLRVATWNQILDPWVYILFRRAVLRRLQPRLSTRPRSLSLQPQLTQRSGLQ

[7] = biological target: T6, 5-hydroxytryptamine receptor 2B (Homo sapiens, UniProt P41595); assay: Agonist activity at 5HT2B receptor (unknown origin) expressed in CHOK1 cells after 3 mins by calcium flux/FLIPR assay; assay type: functional, cell-based, CHO-K1
T6 sequence (P41595 whole entry): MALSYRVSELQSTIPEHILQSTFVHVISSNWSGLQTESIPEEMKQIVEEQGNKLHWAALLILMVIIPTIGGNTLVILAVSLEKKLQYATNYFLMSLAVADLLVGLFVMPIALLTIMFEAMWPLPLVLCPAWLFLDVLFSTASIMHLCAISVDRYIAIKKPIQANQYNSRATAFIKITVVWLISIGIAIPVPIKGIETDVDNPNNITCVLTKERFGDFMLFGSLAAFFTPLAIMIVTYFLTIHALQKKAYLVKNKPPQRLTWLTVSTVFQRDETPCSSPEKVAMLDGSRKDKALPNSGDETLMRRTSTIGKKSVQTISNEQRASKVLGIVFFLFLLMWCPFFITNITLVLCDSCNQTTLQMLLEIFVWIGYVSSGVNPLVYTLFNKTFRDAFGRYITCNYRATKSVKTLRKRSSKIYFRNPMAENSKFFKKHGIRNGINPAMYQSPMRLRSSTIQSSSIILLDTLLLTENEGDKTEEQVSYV

[8] = biological target: T7, 5-hydroxytryptamine receptor 2A (Homo sapiens, UniProt P28223); assay: Agonist activity at 5HT2A receptor (unknown origin) expressed in CHOK1 cells after 3 mins by calcium flux/FLIPR assay; assay type: functional, cell-based, CHO-K1
T7 sequence (P28223 whole entry): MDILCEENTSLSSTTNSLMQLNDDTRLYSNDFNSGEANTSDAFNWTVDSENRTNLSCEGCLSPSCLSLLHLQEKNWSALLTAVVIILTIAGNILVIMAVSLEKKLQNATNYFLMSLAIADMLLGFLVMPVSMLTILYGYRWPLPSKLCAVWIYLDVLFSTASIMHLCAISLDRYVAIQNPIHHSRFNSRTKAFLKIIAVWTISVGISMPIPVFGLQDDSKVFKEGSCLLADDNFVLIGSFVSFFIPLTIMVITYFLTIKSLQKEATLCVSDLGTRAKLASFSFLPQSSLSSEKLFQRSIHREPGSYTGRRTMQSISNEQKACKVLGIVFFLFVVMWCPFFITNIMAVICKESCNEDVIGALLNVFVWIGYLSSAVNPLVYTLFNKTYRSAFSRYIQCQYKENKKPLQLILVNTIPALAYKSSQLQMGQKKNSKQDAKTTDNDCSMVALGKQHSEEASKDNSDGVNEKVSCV

[9] = biological target: T6, 5-hydroxytryptamine receptor 2B; assay: Antagonist activity at 5HT2B receptor (unknown origin) expressed in CHOK1 cells after 15 mins by calcium flux/FLIPR assay in presence of BW723C86; assay type: functional, cell-based, CHO-K1
[10] = biological target: T8, 5-hydroxytryptamine receptor 1A (Homo sapiens, UniProt P08908); assay: Agonist activity at 5HT1A receptor (unknown origin) expressed in HeLa cells after 3 mins by calcium flux/FLIPR assay; assay type: functional, cell-based
T8 sequence (P08908 whole entry): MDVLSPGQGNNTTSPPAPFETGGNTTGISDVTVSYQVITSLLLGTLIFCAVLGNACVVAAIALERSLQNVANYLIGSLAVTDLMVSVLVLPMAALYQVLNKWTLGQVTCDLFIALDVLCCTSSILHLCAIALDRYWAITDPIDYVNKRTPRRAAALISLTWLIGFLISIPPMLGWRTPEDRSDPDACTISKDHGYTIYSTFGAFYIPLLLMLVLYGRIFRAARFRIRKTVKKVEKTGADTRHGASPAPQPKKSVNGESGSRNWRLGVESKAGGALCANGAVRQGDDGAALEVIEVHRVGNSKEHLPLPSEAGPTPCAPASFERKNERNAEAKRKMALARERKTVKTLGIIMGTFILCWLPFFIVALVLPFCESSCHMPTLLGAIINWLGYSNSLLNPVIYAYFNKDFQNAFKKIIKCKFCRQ

[11] = biological target: T8, 5-hydroxytryptamine receptor 1A; assay: Antagonist activity at 5HT1A receptor (unknown origin) expressed in HeLa cells after 15 mins by calcium flux/FLIPR assay in presence of R-(+)-8-OH-DPAT; assay type: functional, cell-based
Thromboxane A2 receptor [12] = biological target: T5, Thromboxane A2 receptor; assay: Agonist activity at thromboxane A2 receptor (unknown origin) expressed in HEK293-EBNA cells after 3 mins by calcium flux/FLIPR assay; assay type: functional, cell-based
D(1A) dopamine receptor [13] = biological target: T3, D(1A) dopamine receptor; assay: Agonist activity at D1A receptor (unknown origin) expressed in CHOK1 cells by HTRF cAMP immunoassay; assay type: functional, cell-based, CHO-K1
[14] = biological target: Beta-2 adrenergic receptor (Homo sapiens, UniProt P07550); assay: Agonist activity at beta-2 adrenergic receptor (unknown origin) expressed in CHOK1 cells by HTRF cAMP immunoassay; assay type: functional, cell-based, CHO-K1
Beta-2 adrenergic receptor, sequence (P07550 whole entry): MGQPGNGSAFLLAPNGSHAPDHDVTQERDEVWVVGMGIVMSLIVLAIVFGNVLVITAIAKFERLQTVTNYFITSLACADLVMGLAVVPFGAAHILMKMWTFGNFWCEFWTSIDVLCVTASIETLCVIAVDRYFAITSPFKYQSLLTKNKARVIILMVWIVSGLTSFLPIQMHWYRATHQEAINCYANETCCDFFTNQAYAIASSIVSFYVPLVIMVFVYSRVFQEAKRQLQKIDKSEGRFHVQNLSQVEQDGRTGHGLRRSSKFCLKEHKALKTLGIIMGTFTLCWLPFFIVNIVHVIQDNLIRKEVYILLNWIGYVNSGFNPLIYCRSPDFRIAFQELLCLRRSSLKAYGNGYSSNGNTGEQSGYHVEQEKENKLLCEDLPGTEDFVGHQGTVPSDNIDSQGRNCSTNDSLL

[15] = biological target: Sphingosine 1-phosphate receptor Edg-5/Sphingosine 1-phosphate receptor Edg-3 (Homo sapiens) (UniProt O95136+Q99500); assay: Agonist activity at S1P2/3 receptor in HEK293 cells assessed as inhibition of forskolin-induced cAMP level after 1 hr by alphascreen immunoassay; assay type: functional, cell-based
[16] = biological target: T9, D(4) dopamine receptor (Homo sapiens) (UniProt P21917); assay: Agonist activity at human D4 receptor expressed in Chem-5 cells assessed as calcium mobilization by FLIPR assay; assay type: functional, cell-based
T9 sequence (whole entry): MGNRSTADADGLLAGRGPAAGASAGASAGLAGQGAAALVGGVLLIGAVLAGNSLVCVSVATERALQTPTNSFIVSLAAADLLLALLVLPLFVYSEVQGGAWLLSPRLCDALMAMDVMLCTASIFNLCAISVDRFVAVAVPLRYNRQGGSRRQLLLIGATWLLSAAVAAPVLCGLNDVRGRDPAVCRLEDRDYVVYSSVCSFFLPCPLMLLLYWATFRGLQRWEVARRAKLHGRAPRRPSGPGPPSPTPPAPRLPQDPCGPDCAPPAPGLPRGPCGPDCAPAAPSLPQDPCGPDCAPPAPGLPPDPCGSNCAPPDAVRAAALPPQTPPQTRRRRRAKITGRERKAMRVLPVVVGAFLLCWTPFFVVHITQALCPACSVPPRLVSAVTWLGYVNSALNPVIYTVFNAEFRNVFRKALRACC

Cannabinoid receptor 1 [17] = biological target: T4, Cannabinoid receptor 1; assay: Agonist activity at CB1 receptor (unknown origin) expressed in rat CHEM-1 cells after 3 mins by calcium flux/FLIPR assay; assay type: functional, cell-based
[18] = biological target: T7, 5-hydroxytryptamine receptor 2A; assay: Antagonist activity at 5HT2A receptor (unknown origin) expressed in CHOK1 cells after 15 mins by calcium flux/FLIPR assay in presence of 5HT; assay type: functional, cell-based, CHO-K1
[19] = biological target: T1, Alpha-1A adrenergic receptor; assay: Antagonist activity at alpha-1A adrenergic receptor (unknown origin) expressed in CHOK1 cells after 15 mins by calcium flux/FLIPR assay in presence of A-61603; assay type: functional, cell-based, CHO-K1

CCCCCCCCCCCCCCCC(=O)N[C@H](C(=O)N[C@H](C(=O)N[C@@H](CC(C)C)C(=O)N1CCC[C@H]1C(=O)N[C@@H](CC(C)C)C(=O)N[C@@H](Cc1c[nH]c2ccccc12)C(=O)N[C@@H](C)C(=O)N[C@H](C(=O)N[C@@H](Cc1ccc(O)cc1)C(=O)N[C@H](C(=O)N[C@@H](Cc1ccc(O)cc1)C(=O)N[C@@H](CCCNC(=N)N)C(N)=O)[C@@H](C)O)[C@@H](C)O)[C@@H](C)O)C(C)C (Palmitoyl-VTLPLWATYTYR-NH2)
inactive: Activity [15] | Activity [16]
> 30 µM: EC50 [1] | EC50 [2] | IC50 (D(1A) dopamine receptor [3]) | IC50 (Cannabinoid receptor 1 [4]) | IC50 [5] | IC50 (Thromboxane A2 receptor [6]) | EC50 [7] | EC50 [8] | IC50 [9] | EC50 [10] | IC50 [11] | EC50 (Thromboxane A2 receptor [12]) | EC50 (D(1A) dopamine receptor [13]) | EC50 [14] | EC50 (Cannabinoid receptor 1 [17]) | IC50 [18] | IC50 [19]
